This passage reports inhibition, Ratio and Activity results from ChEMBL document CHEMBL4020759, “Sulfoximines as ATR inhibitors: Analogs of VE-821” (2017).

Molecules are shown by their SMILES. The source made the active and inactive calls. The calls are words filed in the database; no cut-off is given here.

In assay [1] the target is Serine-protein kinase ATM (Homo sapiens) (UniProt Q13315). The assay can be described thus: Inhibition of ATM in human U2OS cells assessed as reduction in etoposide-induced Chk-2 phosphorylation at Thr68 residue at 10 uM preincubated for 1 hr followed by etoposide challenge measured after 20 mins by Western blot analysis. Type of assay: cell-based. Background: A western blot detects proteins with antibodies after separation by electrophoresis.
Serine-protein kinase ATM (Homo sapiens), sequence (Q13315 whole entry): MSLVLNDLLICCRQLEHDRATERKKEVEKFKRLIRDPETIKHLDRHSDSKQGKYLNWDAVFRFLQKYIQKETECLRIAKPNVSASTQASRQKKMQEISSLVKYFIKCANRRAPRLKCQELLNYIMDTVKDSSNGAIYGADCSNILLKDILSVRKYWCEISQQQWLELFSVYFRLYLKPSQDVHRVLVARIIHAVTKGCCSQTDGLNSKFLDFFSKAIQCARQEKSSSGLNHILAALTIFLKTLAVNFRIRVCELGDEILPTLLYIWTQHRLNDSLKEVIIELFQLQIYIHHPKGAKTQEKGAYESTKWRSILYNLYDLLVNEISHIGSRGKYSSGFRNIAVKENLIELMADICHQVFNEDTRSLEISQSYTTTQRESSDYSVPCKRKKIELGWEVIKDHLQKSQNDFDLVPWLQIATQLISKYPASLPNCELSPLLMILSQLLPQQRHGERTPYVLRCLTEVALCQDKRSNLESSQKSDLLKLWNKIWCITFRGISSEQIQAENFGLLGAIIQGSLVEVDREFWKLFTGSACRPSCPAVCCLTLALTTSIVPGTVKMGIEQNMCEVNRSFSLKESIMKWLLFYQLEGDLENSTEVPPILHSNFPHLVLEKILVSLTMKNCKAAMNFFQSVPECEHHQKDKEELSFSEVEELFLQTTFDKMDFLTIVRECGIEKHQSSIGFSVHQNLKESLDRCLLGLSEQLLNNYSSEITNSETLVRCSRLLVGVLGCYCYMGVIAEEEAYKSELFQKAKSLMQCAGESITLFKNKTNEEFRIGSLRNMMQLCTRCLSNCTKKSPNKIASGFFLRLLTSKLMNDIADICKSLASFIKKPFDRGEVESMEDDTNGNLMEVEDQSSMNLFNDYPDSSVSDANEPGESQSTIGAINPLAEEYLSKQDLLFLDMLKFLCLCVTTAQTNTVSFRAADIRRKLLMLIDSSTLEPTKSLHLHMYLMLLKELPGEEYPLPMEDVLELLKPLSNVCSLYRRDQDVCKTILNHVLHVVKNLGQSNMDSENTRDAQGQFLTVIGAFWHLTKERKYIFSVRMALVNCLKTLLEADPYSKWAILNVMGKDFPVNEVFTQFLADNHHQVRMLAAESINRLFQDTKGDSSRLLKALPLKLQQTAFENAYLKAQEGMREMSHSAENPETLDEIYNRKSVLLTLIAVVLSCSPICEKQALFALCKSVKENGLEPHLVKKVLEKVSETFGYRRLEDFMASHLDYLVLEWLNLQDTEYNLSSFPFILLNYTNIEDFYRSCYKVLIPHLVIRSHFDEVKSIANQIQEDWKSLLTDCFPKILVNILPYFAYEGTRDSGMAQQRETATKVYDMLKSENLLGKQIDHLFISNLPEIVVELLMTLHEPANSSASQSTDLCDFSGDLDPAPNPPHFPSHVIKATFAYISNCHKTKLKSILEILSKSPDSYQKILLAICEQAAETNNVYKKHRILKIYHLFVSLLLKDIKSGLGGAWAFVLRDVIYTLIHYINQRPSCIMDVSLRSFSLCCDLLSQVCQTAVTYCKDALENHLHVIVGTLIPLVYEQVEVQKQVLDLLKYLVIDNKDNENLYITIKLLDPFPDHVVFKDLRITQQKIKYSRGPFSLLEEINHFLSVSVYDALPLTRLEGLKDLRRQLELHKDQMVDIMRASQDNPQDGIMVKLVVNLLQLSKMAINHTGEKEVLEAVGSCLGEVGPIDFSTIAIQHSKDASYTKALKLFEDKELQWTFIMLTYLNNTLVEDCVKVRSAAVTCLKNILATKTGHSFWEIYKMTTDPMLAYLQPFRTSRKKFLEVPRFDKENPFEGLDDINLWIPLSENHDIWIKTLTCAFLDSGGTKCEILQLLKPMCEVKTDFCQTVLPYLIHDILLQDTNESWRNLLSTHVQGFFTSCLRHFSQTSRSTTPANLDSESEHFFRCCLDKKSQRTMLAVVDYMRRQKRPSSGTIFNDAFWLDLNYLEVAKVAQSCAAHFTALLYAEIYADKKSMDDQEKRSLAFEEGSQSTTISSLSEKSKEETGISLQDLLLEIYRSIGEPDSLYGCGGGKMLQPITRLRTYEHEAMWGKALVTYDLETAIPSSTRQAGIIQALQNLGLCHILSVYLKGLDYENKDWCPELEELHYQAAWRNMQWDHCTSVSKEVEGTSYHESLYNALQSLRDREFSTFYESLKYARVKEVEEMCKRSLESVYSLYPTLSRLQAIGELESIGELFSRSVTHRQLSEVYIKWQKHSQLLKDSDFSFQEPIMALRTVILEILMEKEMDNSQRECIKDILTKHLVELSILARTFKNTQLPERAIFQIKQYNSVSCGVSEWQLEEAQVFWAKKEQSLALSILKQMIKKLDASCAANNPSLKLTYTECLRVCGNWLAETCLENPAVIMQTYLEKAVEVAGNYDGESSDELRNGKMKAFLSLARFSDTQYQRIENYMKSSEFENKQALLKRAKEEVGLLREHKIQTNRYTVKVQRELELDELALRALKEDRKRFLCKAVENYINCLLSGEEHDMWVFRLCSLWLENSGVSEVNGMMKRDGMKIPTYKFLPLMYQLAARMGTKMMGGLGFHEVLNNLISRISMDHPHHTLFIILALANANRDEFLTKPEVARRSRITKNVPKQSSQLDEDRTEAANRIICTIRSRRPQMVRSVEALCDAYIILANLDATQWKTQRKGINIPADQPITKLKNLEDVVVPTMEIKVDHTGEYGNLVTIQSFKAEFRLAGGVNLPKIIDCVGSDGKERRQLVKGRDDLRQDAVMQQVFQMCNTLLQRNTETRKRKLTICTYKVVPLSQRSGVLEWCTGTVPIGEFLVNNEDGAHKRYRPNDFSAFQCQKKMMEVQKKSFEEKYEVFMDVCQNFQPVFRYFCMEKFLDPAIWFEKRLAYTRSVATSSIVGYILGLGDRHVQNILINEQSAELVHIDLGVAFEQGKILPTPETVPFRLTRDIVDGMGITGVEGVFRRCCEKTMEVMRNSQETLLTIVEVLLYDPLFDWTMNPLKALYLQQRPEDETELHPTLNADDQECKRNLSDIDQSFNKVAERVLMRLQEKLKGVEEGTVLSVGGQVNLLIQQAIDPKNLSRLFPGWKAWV

Assay [2] has the same target. The experiment in a line: Inhibition of ATM in human U2OS cells assessed as reduction in hydroxyurea-induced Chk-2 phosphorylation at Thr68 residue at 10 uM preincubated for 1 hr followed by hydroxyurea challenge measured after 1 hr by Western blot analysis. Type of assay: cell-based.
Assay [3] addresses Serine/threonine-protein kinase ATR (Homo sapiens) (UniProt Q13535). The assay can be described thus: Inhibition of ATR in human U2OS cells assessed as reduction in hydroxyurea-induced Chk-1 phosphorylation at Ser345 residue by measuring ratio of GAPDH level to phosphorylated Chk-1 level at 10 uM preincubated for 1 hr followed by hydroxyurea challenge measured after 2 hrs by Western blot analysis. Type of assay: cell-based.

The target is the same in assay [4]. The experiment in a line: Inhibition of ATR in human Ramos cells assessed as reduction in […] at 10 uM after 48 hrs by Western blot analysis. Type of assay: cell-based.
Assay [5] shares this target. The assay can be described thus: Inhibition of ATR in human U2OS cells assessed as reduction in hydroxyurea-induced Chk-1 phosphorylation at Ser345 residue at 10 uM preincubated for 1 hr followed by hydroxyurea challenge measured after 1 hr by Western blot analysis. Type of assay: cell-based.
Assay [6] shares this target. The experiment in a line: Inhibition of ATR in human U2OS cells assessed as reduction in hydroxyurea-induced H2AX phosphorylation at Ser139 residue at 3 to 10 uM preincubated for 1 hr followed by hydroxyurea challenge measured after 2 hrs by Western blot analysis. Type of assay: cell-based.
The target is the same in assay [7]. The experiment in a line: Inhibition of ATR in human U2OS cells assessed as reduction in etoposide-induced Chk-1 phosphorylation at Ser345 residue at 10 uM preincubated for 1 hr followed by etoposide challenge measured after 20 mins by Western blot analysis. Type of assay: cell-based.
The target is the same in assay [8]. The assay can be described thus: Inhibition of ATR in human U2OS cells assessed as reduction in hydroxyurea-induced Chk-1 phosphorylation at Ser345 residue preincubated for 1 hr followed by hydroxyurea challenge measured after 2 hrs by Western blot analysis. Type of assay: cell-based.
In assay [9] the target is Serine-protein kinase ATM (Homo sapiens) (UniProt Q13315). The experiment in a line: Inhibition of ATM in human U2OS cells assessed as reduction in hydroxyurea-induced H2AX phosphorylation at Ser139 residue at 3 to 10 uM preincubated for 1 hr followed by hydroxyurea challenge measured after 2 hrs by Western blot analysis. Type of assay: cell-based.
The subject of assay [10] is Ramos. The experiment in a line: Induction of apoptosis in human Ramos cells assessed as increase PARP-1 cleavage at 10 uM after 48 hrs by Western blot analysis. Type of assay: functional, cell-based.
Assay [11] concerns the target Serine/threonine-protein kinase ATR (Homo sapiens) (UniProt Q13535). The assay can be described thus: Inhibition of ATR in human U2OS cells assessed as reduction in hydroxyurea-induced Chk-1 phosphorylation at Ser345 residue by measuring ratio of GAPDH level to phosphorylated Chk-1 level at 3 uM preincubated for 1 hr followed by hydroxyurea challenge measured after 2 hrs by Western blot analysis. Type of assay: cell-based.

`CN=S(C)(=O)c1ccc(-c2cnc(N)c(C(=O)Nc3ccccc3)n2)cc1` (centres undefined): the inhibition entry in assay [1], in assay [2] and in assay [9] was “inactive” in each case. Also, the Ratio came out at 36.4 in [3] and 46.1 in [11]. Moreover, the inhibition entry in assay [4], in assay [5] and in assay [7] was “Active” each time. Besides, the inhibition entry in assay [6] and in assay [8] was “Dose-dependent effect” in each case. In [10], the outcome was Active.

As for `CS(=O)(=O)c1ccc(-c2cnc(N)c(C(=O)Nc3ccccc3)n2)cc1`, the inhibition entry in assay [1] and in assay [9] was “inactive” throughout. Moreover, the results for the Ratio in [3] and in [11] were 16.3 and 13, respectively. The inhibition entry in [4] and in assay [7] was “Active” each time. In addition, in [10], the outcome was Active.

As to `CS(=N)(=O)c1ccc(-c2cnc(N)c(C(=O)Nc3ccccc3)n2)cc1` (centres undefined), the inhibition result in assay [1], in assay [2] and in assay [9] was “inactive” each time. Moreover, the Ratio was 21.1 in [3] and 28.3 in [11]. Moreover, the inhibition entry in assay [4], in assay [5] and in assay [7] was “Active” in each case. The inhibition result in assay [6] and in [8] was “Dose-dependent effect” each time. In assay [10], the result was Active.
